Source: paper PMC11790763, “A Peptide Motif Covering Splice Site B in Neuroligin-1 Binds to Aβ and Acts as a Neprilysin Inhibitor” (Molecular Neurobiology, 2024)
Bridges are numbered along the chain shown (N, C = ends). Roman numbers before positions name the chains, in order. Where no end group is shown, it is not given here.

Columns and labels:
[1] = Integrity after prolonged incubation under aggregation assay conditions (immunoblot); type: physicochemical; conditions: aggregation buffer 50 mM Tris pH 7.4, 37 °C, 8 days; His-tagged NL1 200 nM, biotinylated neurolide 6.7 μM; SDS-PAGE and Western blot versus fresh samples
Experimental: After 8-day incubation, they were subjected to conventional SDS polyacrylamide gel electrophoresis on a pre-casted gel (Any kD Mini-PROTEAN TGX gel, Bio-Rad) and transferred to a PVDF membranes (Millipore) together with freshly prepared samples of sNL1 and b-neurolide as corresponding positive controls. Subsequently, membranes were blocked in 5% (wt/vol) non-fat dry milk in PBST (PBS containing 0.05% [vol/vol] Tween-20). To detect sNL1, blots were probed overnight with a 6x-His tag monoclonal antibody (1:2000, Thermo Fisher Scientific) at 4 °C, followed by incubation for 1 h at room temperature with an anti-mouse horseradish peroxidase (HRP)-conjugated secondary antibody (1:10,000, Thermo Fisher Scientific). B-neurolide was detected by incubation for 1 h at room temperature with a streptavidin-HRP complex (1:5000, Dako). Chemiluminescent signal on the blot was developed by employing the SuperSignal ELISA Femto Substrate kit (Thermo Fisher Scientific) according to the manufacturer’s instructions, and images were acquired using an AlphaImager system (Alpha Innotech).
Supplementary file 12035_2024_4475_Fig8_ESM.png: Supplementary Fig. 3. […] NL1 (200 nM; R&D Systems) and biotinylated neurolide (6.7 μM; Schafer-N) were dissolved in the aggregation buffer, incubated at 37°C for 8 days, followed by conventional immunoblotting. […]

5XFAD mice = assay: GFAP immunoreactivity (astrogliosis) in cortex; type: in vivo, mouse; conditions: 10 mg/kg s.c. three times a week for 10 weeks, neurolide n = 11 versus vehicle n = 13, p < 0.01
Experimental: (§1) At the age of 2 months, 5XFAD and WT mice were injected subcutaneously (s.c.) with either neurolide (10 mg/kg) or saline in a volume of 0.1 ml/10 g of body weight three times a week for 10 weeks.
After 10 weeks of treatment, mice were transcardially perfused with 0.1 M PBS, pH 7.4 under deep pentobarbital anesthesia (intraperitoneal, 200 mg/kg). The left brain hemispheres were postfixed in 4% paraformaldehyde in PBS. The brain hemispheres were further dehydrated in ethanol, cleared, embedded in paraffin blocks and serially sectioned into 7-μm coronal sections through the entire brain hemisphere. Parallel series of sections were collected, consisting of 12 equally spaced Sects. (400 μm apart). One of the series was stained with 1% Thioflavin-S for histological evaluation of Aβ plaque formation. Another series was used for immunohistochemical staining of GFAP + astrocytes as described previously. Extracellular Aβ plaque load was assessed in cortex, hippocampus, striatum, thalamus, and hypothalamus. GFAP-positive astrocytes were assessed in motor cortex. Serial super images of whole-brain sections were acquired using an Olympus BX-51 microscope equipped with the Visiopharm Integrator System software (Visiopharm) and analyzed using the ImageJ software package. […] The area, covered by Thioflavin-S or GFAP staining, was measured in selected regions.

WT and 5XFAD mice = assay: Novel object recognition task; type: in vivo, mouse; conditions: 10 mg/kg s.c. three times a week for 10 weeks
Experimental: as §1
The novel object recognition assay is based on the innate tendency of animals to differentially explore novel and familiar objects and consists of habituation, training, short-term (2 h) and long-term (24 h) memory retention sessions. On day 1, the mice were habituated to the test area (a 35 × 35 cm box with a floor divided into 16 squares). Each mouse was placed into a box without objects and allowed to explore it freely for 5 min. During a training session, a mouse was placed in the test box and exposed to 2 identical nontransparent glass objects placed in the box. During 5 min, locomotion and exploration time for both objects were recorded. Exploration of an object was defined as pointing the nose to the object at a distance of ≤ 1 cm and/or touching it with the nose. Climbing or sitting on the object was not considered exploration. Short-term memory retention was evaluated 2 h after the training session, whereas long-term memory retention was evaluated 24 h after the training session. During both sessions, mice were exposed to the familiar object and to a novel object. The exploration time for the familiar and novel objects and locomotion were recorded for 5 min. Mice failing to explore one or both objects in the training trial were excluded from the statistical analysis.

Aβ40-1 = assay: Competitive ELISA with reversed Aβ (Aβ40-1) as negative control; type: binding; conditions: competitive ELISA with biotinylated reverse Aβ40-1; signal only at the highest neurolide concentration; p < 0.0001 versus Aβ1-40
Experimental: NL1 and NL1-derived peptide binding to Aβ was measured by competitive ELISA using the shorter Aβ1-40 peptide with a slower polymerization constant, optimized for this binding assay. Recombinant NL1 (3.125 nM) was immobilized on a poly-sorb 96-well plate (NUNC, Roskilde, Denmark) using sodium bicarbonate buffer (pH 9.6), and left overnight at 4 °C, followed by washing with PBST buffer (PBS supplemented with 0.1% [vol/vol] Tween-20, pH 7.4). In separate tubes, biotinylated Aβ1-40, at final concentration 400 nM, was premixed with serially diluted NL1 or NL1-derived peptides for 30 min. A reversed version of Aβ (Aβ40-1) was used as the respective negative control (Supplementary Fig. 1). After preincubation, the samples were centrifuged at 20,000 × g for 10 min at 4 °C and 100 μl of the mixtures were transferred in triplicates onto the precoated ELISA plate. Plates were incubated at room temperature for 4 h, followed by washing and incubation with streptavidin-HRP conjugate (1:1000, 1 h; Dako, Glostrup, Denmark). The signal was developed with TMB ONE (KEM-EN-TEC, Denmark), and the reaction was terminated with 0.2 M H2SO4. Absorbance was measured at 450 nm on a Wallac VICTOR2 1420 Multilabel Counter (PerkinElmer, Hvidovre, Denmark). […]

For “I: SEGNRWSNSTKGLFQRAKK-NH2 / II: SEGNRWSNSTKGLFQRAK / III: SEGNRWSNSTKGLFQRA / IV: SEGNRWSNSTKGLFQRA (amide I:18-IV:C, I:19-II:C, II:18-III:C; C-terminus assumed) [neurolide]”, the “integrity after prolonged incubation” value [1] was “remained intact”, the “area of GFAP-immunoreactivity (gliosis) in the cortex” value (5XFAD mice) was “significant increase” and the “recognition index, short-term memory (2 h)” value (WT and 5XFAD mice; 5XFAD mice, versus vehicle, p < 0.05) was “significantly enhanced”. For the same molecule, the “recognition index, long-term memory (24 h)” value (WT and 5XFAD mice; WT and 5XFAD mice, same tendency as at 2 h) was “no longer statistically significant”, the “recognition index, short-term memory (2 h)” value (WT and 5XFAD mice; WT mice, vehicle higher than neurolide, p < 0.01) was “impairs memory” and the Kd (Aβ40-1) was 7.5 µM.

B1: NL1: recombinant rat neuroligin-1, soluble ectodomain (R&D systems) (protein, UniProt Q62765 46-697, looked up)
extracellular domain: QKLDDVDPLVTTNFGKIRGIKKELNNEILGPVIQFLGVPYAAPPTGEHRFQPPEPPSPWSDIRNATQFAPVCPQNIIDGRLPEVMLPVWFTNNLDVVSSYVQDQSEDCLYLNIYVPTEDVKRISKECARKPGKKICRKGDIRDSGGPKPVMVYIHGGSYMEGTGNLYDGSVLASYGNVIVITVNYRLGVLGFLSTGDQAAKGNYGLLDLIQALRWTSENIGFFGGDPLRITVFGSGAGGSCVNLLTLSHYSEGNRWSNSTKGLFQRAIAQSGTALSSWAVSFQPAKYARILATKVGCNVSDTVELVECLQKKPYKELVDQDVQPARYHIAFGPVIDGDVIPDDPQILMEQGEFLNYDIMLGVNQGEGLKFVENIVDSDDGVSASDFDFAVSNFVDNLYGYPEGKDVLRETIKFMYTDWADRHNPETRRKTLLALFTDHQWVAPAVATADLHSNFGSPTYFYAFYHHCQTDQVPAWADAAHGDEVPYVLGIPMIGPTELFPCNFSKNDVMLSAVVMTYWTNFAKTGDPNQPVPQDTKFIHTKPNRFEEVAWTRYSQKDQLYLHIGLKPRVKEHYRANKVNLWLELVPHLHNLNDISQYTSTTTKVPSTDITLRPTRKNSTPVTSAFPTAKQDDPKQQPSPFSVDQRDYSTELS
modifications: extracellular domain
For B1, the “integrity after prolonged incubation” value [1] was “remained intact”.
